# Measured values taken from patent US8652533B2 (priority 2004, dated 2014).
# Experiments:
# SARS (Toronto-2 Strain) = test: microbe, parasite or virus in culture; type: cell-based, SARS coronavirus (SARSCoV); details: for ACTIVITY: conc. 1 μM; for cytoprotective effect in the assay (in words): tested concentration (1 μM)
# SARSCoV, strain Urbani = type: cell-based, SARS coronavirus (SARSCoV)
Compound,ACTIVITY (SARS (Toronto-2 Strain)),cytoprotective effect in the assay (in words) (SARS (Toronto-2 Strain)),"direct virucidal effect (in words) (SARSCoV, strain Urbani)","inhibition at 1 µM (SARS (Toronto-2 Strain); Severe acute respiratory syndrome coronavirus, Vero 76, 72 h, read-out: % CPE (INHIBITION)) [%]"
Oc1cc(O)c2c(c1)O[C@H](c1ccc(O)c(O)c1)[C@@H](O)C2 [(+)-Catechin],Inactive,not,–,–
Oc1cc(O)c2c(c1)O[C@H](c1ccc(O)c(O)c1)[C@H](O)C2 [(−)-Epicatechin],Inactive,not,–,–
Oc1cc(O)c2c(c1)O[C@H](c1cc(O)c(O)c(O)c1)[C@@H](O)C2 [(+)-Gallocatechin],Inactive,not,–,–
(−)-Epigallocatechin Gallate,Active,had cytoprotective effect,–,–
O=c1c(O)cc([C@H]2Oc3cc(O)cc(O)c3C[C@H]2O)cc2c([C@H]3Oc4cc(O)cc(O)c4C[C@H]3O)cc(O)c(O)c12 [free Theaflavin],Active,–,–,–
Theaflavindigallate-A,Inactive,–,–,–
O=C(O[C@@H]1Cc2c(O)cc(O)cc2O[C@H]1c1ccc(O)c(O)c1)c1cc(O)c(O)c(O)c1 [(−)-Catechin Gallate],Active,–,–,–
catechin,–,–,very inhibitory to the virus,–
O=C(O[C@@H]1Cc2c(O)cc(O)cc2O[C@@H]1c1cc(O)c(=O)c2c(O)c(O)cc([C@H]3Oc4cc(O)cc(O)c4C[C@H]3OC(=O)c3cc(O)c(O)c(O)c3)c2c1)c1cc(O)c(O)c(O)c1 [Theaflavindigallate],Active,–,–,100
(−)-Gallocatechin Gallate,Active,had cytoprotective effect,–,–
Theaflavindigallate-B,Inactive,–,–,–
Oc1cc(O)c2c(c1)O[C@@H](c1ccc(O)c(O)c1)[C@@H](O)C2 [(+)-Epicatechin],Inactive,–,–,–
O=C(O[C@@H]1Cc2c(O)cc(O)cc2O[C@@H]1c1ccc(O)c(O)c1)c1cc(O)c(O)c(O)c1 [(−)-Epicatechin Gallate],Active,had cytoprotective effect,–,–
Oc1cc(O)c2c(c1)O[C@H](c1cc(O)c(O)c(O)c1)[C@H](O)C2 [(−)-Epigallocatechin],Inactive,not,–,–
(−)-Catechin,Inactive,–,–,–
Oc1cc(O)c2c(c1)O[C@@H](c1cc(O)c(O)c(O)c1)[C@H](O)C2 [(−)-Gallocatechin],Inactive,–,–,–
